Reference: US8754089B2, “Heterocyclic compounds and their uses” (Amgen Inc., priority 2009, dated 2014)

Molecular target: PI3Kδ (Homo sapiens (Human), UniProt O00329)
Assay: PI3Kδ Alphascreen assay
Format: biochemical
Procedure: Full length p110 subunits of PI3k α, β and δ, N-terminally labeled with polyHis tag, were coexpressed with p85 with Baculo virus expression vectors in sf9 insect cells. P110/p85 heterodimers were purified by sequential Ni-NTA, Q-HP, Superdex-100 chromatography. Purified α, β and δ isozymes were stored at −20° C. in 20 mM Tris, pH 8, 0.2M NaCl, 50% glycerol, 5 mM DTT, 2 mM Na cholate. […] The y isozyme was purified by sequential Ni-NTA, Superdex-200, Q-HP chromatography. The γ isozyme was stored frozen at −80° C. in NaH2PO4, pH 8, 0.2M NaCl, 1% ethylene glycol, 2 mM β-mercaptoethanol.
A PI3K Alphascreen® assay (PerkinElmer, Waltham, Mass.) was used to measure the activity of a panel of four phosphoinositide 3-kinases: PI3Kα, PI3Kβ, PI3Kγ, and PI3Kδ. Enzyme reaction buffer was prepared using sterile water (Baxter, Deerfield, Ill.) and 50 mM Tris HCl pH 7, 14 mM MgCl2, 2 mM sodium cholate, and 100 mM NaCl. 2 mM DTT was added fresh the day of the experiment. The Alphascreen buffer was made using sterile water and 10 mM Tris HCl pH 7.5, 150 mM NaCl, 0.10% Tween 20, and 30 mM EDTA. 1 mM DTT was added fresh the day of the experiment. Compound source plates used for this assay were 384-well Greiner clear polypropylene plates containing test compounds at 5 mM and diluted 1:2 over 22 concentrations. Columns 23 and 24 contained only DMSO as these wells comprised the positive and negative controls, respectively. Source plates were replicated by transferring 0.5 uL per well into 384-well Optiplates (PerkinElmer, Waltham, Mass.).
Each PI3K isoform was diluted in enzyme reaction buffer to 2× working stocks. […] PI(4,5)P2 (Echelon Biosciences, Salt Lake City, Utah) was diluted to 10 μM and ATP was diluted to 20 μM. This 2× stock was used in the assays for PI3Kα and PI3Kβ. For assay of PI3Kγ and PI3Kδ, PI(4,5)P2 was diluted to 10 μM and ATP was diluted to 8 μM to prepare a similar 2× working stock. Alphascreen reaction solutions were made using beads from the anti-GST Alphascreen kit (PerkinElmer, Waltham, Mass.). Two 4× working stocks of the Alphascreen reagents were made in Alphascreen reaction buffer. In one stock, biotinylated-IP4 (Echelon Biosciences, Salt Lake City, Utah) was diluted to 40 nM and streptavadin-donor beads were diluted to 80 μg/mL. In the second stock, PIP3-binding protein (Echelon Biosciences, Salt Lake City, Utah) was diluted to 40 nM and anti-GST-acceptor beads were diluted to 80 μg/mL.
10 μL/well of the appropriate substrate 2× stock (containing 20 μM ATP for the PI3Kα and β assays and containing 8 μM ATP for the PI3Kγ and δ assays) was then added to Columns 1-24 of all plates. Plates were then incubated at room temperature for 20 minutes. In the dark, 10 μL/well of the donor bead solution was added to columns 1-24 of the plates to quench the enzyme reaction. The plates were incubated at room temperature for 30 minutes. Still in the dark, 10 μL/well of the acceptor bead solution was added to columns 1-24 of the plates. The plates were then incubated in the dark for 1.5 hours. The plates were read on an Envision multimode Plate Reader (PerkinElmer, Waltham, Mass.) using a 680 nm excitation filter and a 520-620 nm emission filter.

Sequence of PI3Kδ (O00329 whole entry): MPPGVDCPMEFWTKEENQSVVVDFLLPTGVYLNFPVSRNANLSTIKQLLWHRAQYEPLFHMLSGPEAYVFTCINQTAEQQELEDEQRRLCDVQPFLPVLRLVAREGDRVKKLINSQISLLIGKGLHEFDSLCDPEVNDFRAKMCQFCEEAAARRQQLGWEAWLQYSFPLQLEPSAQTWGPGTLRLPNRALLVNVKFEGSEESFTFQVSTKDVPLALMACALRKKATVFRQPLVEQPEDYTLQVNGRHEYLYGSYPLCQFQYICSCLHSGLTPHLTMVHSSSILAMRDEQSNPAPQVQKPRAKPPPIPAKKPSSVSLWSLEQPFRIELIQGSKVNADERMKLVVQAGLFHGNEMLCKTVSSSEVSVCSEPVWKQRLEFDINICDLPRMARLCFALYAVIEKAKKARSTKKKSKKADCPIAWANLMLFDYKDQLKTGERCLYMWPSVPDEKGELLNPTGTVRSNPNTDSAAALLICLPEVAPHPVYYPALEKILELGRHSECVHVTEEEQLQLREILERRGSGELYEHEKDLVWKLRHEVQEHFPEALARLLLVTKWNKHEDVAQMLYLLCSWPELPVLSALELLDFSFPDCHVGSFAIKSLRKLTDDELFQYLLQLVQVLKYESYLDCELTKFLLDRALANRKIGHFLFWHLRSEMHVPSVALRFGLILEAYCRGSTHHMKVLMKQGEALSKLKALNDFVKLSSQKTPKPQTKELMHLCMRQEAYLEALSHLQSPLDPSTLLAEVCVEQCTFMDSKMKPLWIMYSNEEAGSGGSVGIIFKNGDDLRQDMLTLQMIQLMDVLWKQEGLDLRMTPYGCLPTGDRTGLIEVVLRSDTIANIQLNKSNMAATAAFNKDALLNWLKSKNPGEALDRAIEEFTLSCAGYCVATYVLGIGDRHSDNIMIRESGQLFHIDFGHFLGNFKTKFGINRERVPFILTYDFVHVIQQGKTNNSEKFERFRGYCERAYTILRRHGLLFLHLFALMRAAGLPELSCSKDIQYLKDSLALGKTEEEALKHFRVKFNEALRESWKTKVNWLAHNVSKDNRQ
Sequence of PI3Kδ (P27986 whole entry partner): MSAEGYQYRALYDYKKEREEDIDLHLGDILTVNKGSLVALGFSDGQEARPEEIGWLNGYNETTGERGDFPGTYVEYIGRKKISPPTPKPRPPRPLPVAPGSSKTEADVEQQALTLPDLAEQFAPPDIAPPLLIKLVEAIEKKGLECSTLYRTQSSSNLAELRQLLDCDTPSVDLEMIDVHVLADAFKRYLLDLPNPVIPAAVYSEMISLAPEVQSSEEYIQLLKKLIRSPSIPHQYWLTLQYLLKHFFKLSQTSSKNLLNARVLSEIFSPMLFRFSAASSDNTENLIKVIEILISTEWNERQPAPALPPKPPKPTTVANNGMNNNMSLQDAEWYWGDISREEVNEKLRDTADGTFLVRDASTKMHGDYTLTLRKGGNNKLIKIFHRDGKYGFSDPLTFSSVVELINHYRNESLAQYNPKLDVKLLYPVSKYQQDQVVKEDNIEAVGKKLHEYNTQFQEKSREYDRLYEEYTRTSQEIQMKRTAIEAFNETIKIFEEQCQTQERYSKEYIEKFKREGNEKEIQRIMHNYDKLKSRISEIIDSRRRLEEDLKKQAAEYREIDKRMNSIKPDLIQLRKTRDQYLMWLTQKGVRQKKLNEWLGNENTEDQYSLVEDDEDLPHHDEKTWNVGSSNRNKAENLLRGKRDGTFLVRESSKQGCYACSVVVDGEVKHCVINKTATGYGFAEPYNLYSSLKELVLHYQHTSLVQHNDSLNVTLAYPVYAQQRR

Ki	SMILES
27.7 nM	Cc1cccc2nc(C(C)Nc3ncnc4[nH]cnc34)c(-c3cccc(F)c3)c(=O)n12 (racemic) [3-(3-fluorophenyl)-6-methyl-2-(1-(9H-purin-6-ylamino)ethyl)-4H-pyrido[1,2-a]pyrimidin-4-one]
89 nM	CC(Nc1ncnc(N)c1C#N)c1nc2ccccn2c(=O)c1-c1cc(F)cc(F)c1 (racemic) [4-Amino-6-((1-(3-(3,5-difluorophenyl)-4-oxo-4H-pyrido[1,2-a]pyrimidin-2-yl)ethyl)amino)-5-pyrimidinecarbonitrile]
52.8 nM	CC(Nc1ncnc(N)c1C#N)c1nc2ccccn2c(=O)c1-c1ccccc1S(C)(=O)=O (racemic) [4-amino-6-((1-(3-(2-(methylsulfonyl)phenyl)-4-oxo-4H-pyrido[1,2-a]pyrimidin-2-yl)ethyl)amino)-5-pyrimidinecarbonitrile]
57.1 nM	CC(Nc1ncnc(N)c1C#N)c1nc2ccccn2c(=O)c1-c1cccc(F)c1 (racemic) [4-amino-6-((1-(3-(3-fluorophenyl)-4-oxo-4H-pyrido[1,2-a]pyrimidin-2-yl)ethyl)amino)-5-pyrimidinecarbonitrile]
471 nM	Cc1ccnc(-c2c(C(C)Nc3ncnc(N)c3C#N)nc3ccccn3c2=O)c1 (racemic) [4-amino-6-((1-(3-(4-methyl-2-pyridinyl)-4-oxo-4H-pyrido[1,2-a]pyrimidin-2-yl)ethyl)amino)-5-pyrimidinecarbonitrile]
104 nM	CC(Nc1ncnc(N)c1C#N)c1nc2ccccn2c(=O)c1-c1ccccn1 (racemic) [4-amino-6-((1-(4-oxo-3-(2-pyridinyl)-4H-pyrido[1,2-a]pyrimidin-2-yl)ethyl)amino)-5-pyrimidinecarbonitrile]
10.8 nM	Cc1cccc2nc(C(C)Nc3ncnc(N)c3C#N)c(-c3ccccn3)c(=O)n12 (racemic) [4-amino-6-((1-(6-methyl-4-oxo-3-(2-pyridinyl)-4H-pyrido-[1,2-a]pyrimidin-2-yl)ethyl)amino)-5-pyrimidinecarbonitrile]
12.6 nM	Cc1cccc2nc(C(C)Nc3ncnc(N)c3C#N)c(-c3ccccc3)c(=O)n12 (racemic) [4-amino-6-((1-(6-methyl-4-oxo-3-phenyl-4H-pyrido[1,2-a]pyrimidin-2-yl)ethyl)amino)-5-pyrimidinecarbonitrile]
1180 nM	Cc1cccc2nc(C(C)Nc3ncnc(N)c3C#N)c(-c3ccccc3)c(=O)n12 (single isomer, unassigned)
84.9 nM	Cc1cccc2nc(Cn3nc(I)c4c(N)ncnc43)c(-c3cccc(F)c3)c(=O)n12 [2-((4-amino-3-iodo-1H-pyrazolo[3,4-d]pyrimidin-1-yl)methyl)-3-(3-fluorophenyl)-6-methyl-4H-pyrido[1,2-a]pyrimidin-4-one]
6280 nM	Cc1ccccc1-c1c(Cn2cnc3c(N)ncnc32)nc2cccc(C)n2c1=O [2-((6-amino-9H-purin-9-yl)methyl)-6-methyl-3-(2-methylphenyl)-4H-pyrido[1,2-a]pyrimidin-4-one]
711 nM	Cc1cccc2nc(CNc3ncnc4[nH]cnc34)c(-c3cccc(F)c3)c(=O)n12 [3-(3-Fluorophenyl)-6-methyl-2-((9H-purin-6-ylamino)methyl)-4H-pyrido[1,2-a]pyrimidin-4-one]
802 nM	Cc1cccc2nc([C@@H](C)Nc3ncnc4[nH]cnc34)c(-c3cccc(F)c3)c(=O)n12 [3-(3-fluorophenyl)-6-methyl-2-((1R)-1-(9H-purin-6-ylamino)ethyl)-4H-pyrido[1,2-a]pyrimidin-4-one]
23.1 nM	Cc1cccc2nc([C@H](C)Nc3ncnc4[nH]cnc34)c(-c3cccc(F)c3)c(=O)n12 [3-(3-fluorophenyl)-6-methyl-2-((1S)-1-(9H-purin-6-ylamino)ethyl)-4H-pyrido[1,2-a]pyrimidin-4-one]
1880 nM	C[C@@H](Nc1ncnc(N)c1C#N)c1nc2ccccn2c(=O)c1-c1cccc(F)c1 [4-Amino-6-(((1R)-1-(3-(3-fluorophenyl)-4-oxo-4H-pyrido[1,2-a]pyrimidin-2-yl)ethyl)amino)-5-pyrimidinecarbonitrile]
33 nM	CC(Nc1ncnc(N)c1C#N)c1c(-c2cc(F)cc(F)c2)c(=O)c2cc(F)ccc2n1C (centres unmarked) [4-amino-6-((1-(3-(3,5-difluorophenyl)-6-fluoro-1-methyl-4-oxo-1,4-dihydro-2-quinolinyl)ethyl)amino)-5-pyrimidinecarbonitrile]
24600 nM	C[C@@H](Nc1ncnc(N)c1C#N)c1nc2ccccn2c(=O)c1-c1ccccc1S(C)(=O)=O [4-amino-6-(((1R)-1-(3-(2-(methylsulfonyl)phenyl)-4-oxo-4H-pyrido[1,2-a]pyrimidin-2-yl)ethyl)amino)-5-pyrimidinecarbonitrile]
320000 nM	C[C@@H](Nc1ncnc(N)c1C#N)c1nc2ccccn2c(=O)c1-c1cc(F)cc(F)c1 [4-amino-6-(((1R)-1-(3-(3,5-difluorophenyl)-4-oxo-4H-pyrido[1,2-a]pyrimidin-2-yl)ethyl)amino)-5-pyrimidinecarbonitrile]
9270 nM	Cc1ccnc(-c2c([C@@H](C)Nc3ncnc(N)c3C#N)nc3ccccn3c2=O)c1 [4-amino-6-(((1R)-1-(3-(4-methyl-2-pyridinyl)-4-oxo-4H-pyrido[1,2-a]pyrimidin-2-yl)ethyl)amino)-5-pyrimidinecarbonitrile]
585 nM	C[C@@H](Nc1ncnc(N)c1C#N)c1nc2ccccn2c(=O)c1-c1ccccn1 [4-amino-6-(((1R)-1-(4-oxo-3-(2-pyridinyl)-4H-pyrido[1,2-a]pyrimidin-2-yl)ethyl)amino)-5-pyrimidinecarbonitrile]
10700 nM	Cc1cccc2nc([C@@H](C)Nc3ncnc(N)c3C#N)c(-c3ccccn3)c(=O)n12 [4-amino-6-(((1R)-1-(6-methyl-4-oxo-3-(2-pyridinyl)-4H-pyrido[1,2-a]pyrimidin-2-yl)ethyl)amino)-5-pyrimidine-carbonitrile]
53.7 nM	C[C@H](Nc1ncnc(N)c1C#N)c1nc2ccccn2c(=O)c1-c1ccccc1S(C)(=O)=O [4-amino-6-(((1S)-1-(3-(2-(methylsulfonyl)phenyl)-4-oxo-4H-pyrido[1,2-a]pyrimidin-2-yl)ethyl)amino)-5-pyrimidinecarbonitrile]
21.6 nM	C[C@H](Nc1ncnc(N)c1C#N)c1nc2ccccn2c(=O)c1-c1cc(F)cc(F)c1 [4-amino-6-(((1S)-1-(3-(3,5-difluorophenyl)-4-oxo-4H-pyrido[1,2-a]pyrimidin-2-yl)ethyl)amino)-5-pyrimidinecarbonitrile]
15.7 nM	C[C@H](Nc1ncnc(N)c1C#N)c1nc2ccccn2c(=O)c1-c1cccc(F)c1 [4-amino-6-(((1S)-1-(3-(3-fluorophenyl)-4-oxo-4H-pyrido[1,2-a]pyrimidin-2-yl)ethyl)amino)-5-pyrimidinecarbonitrile]
230 nM	Cc1ccnc(-c2c([C@H](C)Nc3ncnc(N)c3C#N)nc3ccccn3c2=O)c1 [4-amino-6-(((1S)-1-(3-(4-methyl-2-pyridinyl)-4-oxo-4H-pyrido[1,2-a]pyrimidin-2-yl)ethyl)amino)-5-pyrimidinecarbonitrile]
42.4 nM	C[C@H](Nc1ncnc(N)c1C#N)c1nc2ccccn2c(=O)c1-c1ccccn1 [4-amino-6-(((1S)-1-(4-oxo-3-(2-pyridinyl)-4H-pyrido[1,2-a]pyrimidin-2-yl)ethyl)amino)-5-pyrimidinecarbonitrile]
21.4 nM	Cc1cccc2nc([C@H](C)Nc3ncnc(N)c3C#N)c(-c3ccccn3)c(=O)n12 [4-amino-6-(((1S)-1-(6-methyl-4-oxo-3-(2-pyridinyl)-4H-pyrido[1,2-a]pyrimidin-2-yl)ethyl)amino)-5-pyrimidinecarbonitrile]
5 nM	Cc1cccc2nc([C@H](C)Nc3ncnc(N)c3C#N)c(-c3ccccc3)c(=O)n12 [4-amino-6-(((1S)-1-(6-methyl-4-oxo-3-phenyl-4H-pyrido[1,2-a]pyrimidin-2-yl)ethyl)amino)-5-pyrimidinecarbonitrile]
9710 nM	Cc1ccccc1-c1c(CSc2ncnc3[nH]cnc23)nc2cccc(C)n2c1=O [6-methyl-3-(2-methylphenyl)-2-((9H-purin-6-yl-sulfanyl)methyl)-4H-pyrido[1,2-a]pyrimidin-4-one]
